{"source": "paper doi:10.1101/2024.12.09.627564", "about": "“Cannabinoid inhibition of mechanosensitive K^+ channels” (bioRxiv, 2024)", "key": {"[1]": {"molecular_target": "T1, Homo sapiens TRAAK (Homo sapiens, UniProt Q9NYG8)", "T1 construct": "The transcribed messages encode H. sapiens TRAAK amino acids 1–393; expressed in transfected cells; host or cells: Xenopus laevis oocytes, cRNA injection", "T1 sequence (Q9NYG8 1-393)": "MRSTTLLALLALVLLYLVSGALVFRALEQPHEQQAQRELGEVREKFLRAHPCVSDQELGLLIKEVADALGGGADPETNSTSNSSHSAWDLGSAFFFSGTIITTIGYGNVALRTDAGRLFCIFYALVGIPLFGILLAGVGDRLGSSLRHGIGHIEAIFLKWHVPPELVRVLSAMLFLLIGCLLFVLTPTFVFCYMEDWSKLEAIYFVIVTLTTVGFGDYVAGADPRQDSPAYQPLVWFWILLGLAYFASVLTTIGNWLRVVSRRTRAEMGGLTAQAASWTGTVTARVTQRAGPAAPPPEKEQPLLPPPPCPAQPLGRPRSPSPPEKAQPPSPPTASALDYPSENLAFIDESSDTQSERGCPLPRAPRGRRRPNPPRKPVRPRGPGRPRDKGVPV", "experiment": "Excised inside-out patch recording of TRAAK from Xenopus oocytes", "type": "biochemical", "source_text": "For patch clamp recording from Xenopus oocytes, genes encoding full-length Homo sapiens TRAAK (UniProt Q9NYG8–2), TREK-1 (UniProt O95069), and TREK-2 (UniProt P57789) were codon optimized for eukaryotic expression, synthesized (Genewiz), and cloned into a modified pGEMHE vector using Xho1 and EcoR1 restriction sites. The transcribed messages encode H. sapiens TRAAK amino acids 1–393, TREK-1 amino acids 1–426, or TREK-2 amino acids 1–538 with an additional three amino acids (SNS) at the C terminus. TRAAK mutants were introduced by polymerase chain reaction (PCR). Linearized DNA was transcribed in vitro using T7 polymerase. Complementary RNA (0.1 to 10 ng for TRAAK, TREK-1, TREK-2, and mutants) in 50 nL H2O was injected into Xenopus laevis oocytes extracted from anesthetized frogs. Currents were recorded at 25 °C from inside-out patches excised from oocytes 1 to 5 d after RNA injection. The pipette solution contained 15 mM KCl, 135 mM NaCl, 2 mM MgCl2, and 10 mM HEPES (pH = 7.4 with KOH) and the bath solution contained 150 mM KCl and 10 mM HEPES (pH = 7.1 with KOH). Borosilicate glass pipettes were pulled to 2–5 MΩ resistance.\nPatches were evaluated with voltage-step protocols to confirm TRAAK expression and minimal non-specific leak based on reversal potential. Currents were recorded using an Axopatch 200B amplifier (Molecular Devices) at a bandwidth of 1 kHz and digitized with an Digidata 1550B (Molecular Devices) at 100–500 kHz using pClamp10.7 software. Pressure was applied with a second-generation high-speed pressure clamp device (HSPC-2-SB, ALA Scientific Instruments). Aggregated data were from patches from n ≥ 2 different cells on different days. No relevant differences were observed between patches from different cells. In an effort to minimize variability associated with differences in resting membrane tension, we targeted patches with low basal curvature and low resting channel activity and ensured measured pressure difference across the patch was as close to zero as possible at rest to prevent mechanical activation of channels. Data were analyzed using Clampfit 10.7, Excel, and Graphpad Prism software. For voltage families, the data were decimated 100x and plotted in Prism. Statistical analysis was conducted with Dunnett’s multiple comparisons test after an ordinary one-way ANOVA using Prism software.\nTo avoid cannabinoid absorption to plastic, cannabinoid solutions were made in glass vials and diluted by weight, perfusion was performed using glass tubing pulled from borosilicate glass Pasteur pipettes (Fisherbrand, Cat# 13–678-20C), and recordings were performed in glass chambers. Channel activity was continuously recorded during perfusion steps. Patches were exposed to each cannabinoid concentration until a stable current level was reached (0.5–2 minutes). CBD (Cayman Chemical cat#90080) was prepared as a 10mM stock solution in DMSO, CBN (Cayman Chemical cat#25495) was prepared as a 80mM stock solution in DMSO, CBDV (Phytolab Cat#85955) was prepared as a 10mM stock solution in DMSO, and CBDP (Cayman Chemical cat#33611) was purchased as a 2.9 mM stock solution in methanol. Cannabinoids were serially diluted in bath solution to achieve working concentrations of 50 μM to 10 nM. Bath volume in the recording chamber was minimized by suction and drug-containing solutions were delivered three times to ensure establishment of desired concentration in the recording chamber. Cannabinoids were applied from low to high concentration. The recording chamber and perfusion system were washed extensively with methanol after every trial.\nThe effects of cannabinoids on channel activity were quantified by the reduction in channel current evoked at 0 mV during a gap-free recording or during 200 ms long voltage families with steps ranging from −100 to +100 mV. Currents were normalized to those prior to cannabinoid application to facilitate comparisons across different patches and cells. […]"}, "[2]": {"test_system": "CB1", "design": "method as in PMID 27398024", "conditions": "partial agonism of CB1; cited from earlier work"}, "[3]": {"test_system": "CB2", "design": "method as in PMID 27398024", "conditions": "partial agonism of CB2; cited from earlier work"}, "[4]": {"conditions": "TRAAK inhibition, relative to CBD"}}, "note": "Read-outs that look alike come from different tables or passages of the source.", "data": [{"smiles": "CCCCCc1cc(O)c2c(c1)OC(C)(C)c1ccc(C)cc1-2", "note": "[CBN, Cannabinol]", "values": [{"measurement": "IC50", "setting": "[1]", "result": 107, "unit": "nM"}, {"measurement": "more potent than CBD", "setting": "[1]; [4]", "result": "~ 33%"}]}, {"smiles": "C=C(C)[C@@H]1CCC(C)=CC1c1c(O)cc(CCCCCCC)cc1O", "note": "(stereo partly drawn) [CBDP, Cannabidiphorol]", "values": [{"measurement": "fold more potent than CBD", "setting": "[1]; [4]", "result": "~ 10 fold"}, {"measurement": "IC50", "setting": "[1]; wild-type TRAAK, excised patch, current at 0 mV, all glass components, read-out: IC50", "result": "17 ± 3", "unit": "nM"}]}, {"smiles": "C=C(C)[C@@H]1CCC(C)=C[C@H]1c1c(O)cc(CCC)cc1O", "note": "[CBDV, cannabidivarin]", "values": [{"measurement": "inhibition of TRAAK channels at high concentration", "setting": "[1]; 20 μM", "result": "fully inhibits"}, {"measurement": "fold less potent than CBD", "setting": "[1]; [4]", "result": "~ 40 fold"}, {"measurement": "IC50", "setting": "[1]; wild-type TRAAK, excised patch, current at 0 mV, read-out: IC50", "result": "5580 ± 340", "unit": "nM"}]}, {"smiles": "CCCCCc1cc(O)c2c(c1)OC(C)(C)[C@@H]1CCC(C)=C[C@@H]21", "note": "[THC, delta-9-tetrahydrocannabinol]", "values": [{"measurement": "EC50", "setting": "[2]", "result": "[…]"}, {"measurement": "EC50", "setting": "[3]", "result": "[…]"}]}]}
